The subject of one data set is MOLT-4. Also noted: method as in PMID 31078767. Particulars: MOLT-4, MTT method; cited from earlier work. On the technique in general: Tetrazolium dyes change colour on reduction, which living cells bring about.
Another data set deals with HT-29. Also noted: method as in PMID 31078767. The following applies: HT-29, MTT method; cited from earlier work.
Another data set concerns MCF-7. Also noted: method as in PMID 31078767. Particulars: MCF-7, MTT method; cited from earlier work.
Data set [1] relates to breast cancer cells (MDA-MB-468). Also noted: method as in PMID 31586710. Particulars: 2.5 μM; cited from earlier work.
Data set [2] concerns HepG2 cells. Also noted: method as in PMID 32745759. Particulars: read-out: IC50, growth of HepG2 cells; cited from earlier work.
A further data set deals with EGFR T790M. Also noted: method as in PMID 37611529. Particulars: cited from earlier work.
The subject of a further data set is VEGFR-2. Also noted: method as in PMID 37611529. The following applies: cited from earlier work.
Data set [3] deals with HepG2 cells. Also noted: method as in PMID 34237623, PMID 38675717. Particulars: read-out: IC50, inhibitory activity against HepG2 cells; cited from earlier work.
Data set [4] deals with HepG2 cells. Briefly: CCK8 cell viability / IC50 assay on HepG2 cells. The following applies: for % Cell Viability (10 μM): 72 h; for IC50: read-out: HepG2, IC50 (μM) 72 h.

The structures appear in SMILES notation. Where two headings read alike, the source gives them in different places.

The values that follow come from paper PMC11597353, “Synthesis of Novel Gefitinib-Conjugated 1,2,3-Triazole Derivatives and Their Effect of Inducing DNA Damage and Apoptosis in Tumor Cells” (Molecules, 2024).

With `O=C1C=C(NCc2cn(Cc3ccc(C(F)(F)F)cc3)nn2)C(=O)c2ccccc21` [Compound 2], the half-inhibitory concentration (IC50) in the data set on MOLT-4 was 8.4 µM; in the data set on HT-29, 6.8 µM; in the data set on MCF-7 it was 10.4 µM.
Consider `O=C(C1=Cc2cc3ccccc3n2Cc2cnnn21)c1ccccc1` [Compound 3], for which the “colony formation in breast cancer cells (MDA-MB-468)” value in data set [1] is reported as “completely inhibited”.
Take `Cc1cc(C)nc(NS(=O)(=O)c2ccc(-n3cc(CCc4nc5ccccc5s4)nn3)cc2)n1` [Compound 4]: the IC50 in the data set on HepG2 cells [2] was 1.49 µM.
Consider `NS(=O)(=O)c1ccc(-n2c(SCC(=O)Nc3cccc4ccccc34)nc3ccc(I)cc3c2=O)cc1` [Compound 7], for which the IC50 in the data set on EGFR T790M was 0.0728 µM; with VEGFR-2 it was 0.0523 µM.
With `COc1cc(C(=O)c2nc3ccccc3c(=O)[nH]2)cc(OC)c1OC` [Compound 8], the IC50 in the data set on HepG2 cells [3] was 1.22 µM.
On to `COc1cc2ncnc(Nc3cccc(-c4cn(Cc5ccc(Br)cc5)nn4)c3)c2cc1OCCCN1CCOCC1` [Compound 11a, N-(3-(1-(4-bromobenzyl)-1H-1,2,3-triazol-4-yl)phenyl)-7-methoxy-6-(3-morpholinopropoxy)quinazolin-4-amine], for which the melting point fell in the range of 177 to 178 °C. In addition, in the data set with HepG2 cells [4], the “% Cell Viability (10 μM)” value is recorded as 7.07 ± 0.49% and the IC50 amounted to 5.49 ± 0.21 µM.
In the case of `COc1cc2ncnc(Nc3cccc(-c4cn(Cc5ccccc5C#N)nn4)c3)c2cc1OCCCN1CCOCC1` [Compound 11b, 2-((4-(3-((7-methoxy-6-(3-morpholinopropoxy)quinazolin-4-yl)amino)phenyl)-1H-1,2,3-triazol-1-yl)methyl)benzonitrile], the melting point lay in the range of 167 to 168 °C. Further, the “% Cell Viability (10 μM)” value with HepG2 cells [4] is listed as 59.50 ± 2.74%.
In the case of `COc1cc2ncnc(Nc3cccc(-c4cn(Cc5cc(Br)cc(Br)c5)nn4)c3)c2cc1OCCCN1CCOCC1` [Compound 11c, N-(3-(1-(3,5-dibromobenzyl)-1H-1,2,3-triazol-4-yl)phenyl)-7-methoxy-6-(3-morpholinopropoxy)quinazolin-4-amine], the “% Cell Viability (10 μM)” value in the data set on HepG2 cells [4] is reported as 37.72 ± 2.38%.
`COc1cc2ncnc(Nc3cccc(-c4cn(Cc5ccc(C)cc5)nn4)c3)c2cc1OCCCN1CCOCC1` [Compound 11d, 7-methoxy-N-(3-(1-(4-methylbenzyl)-1H-1,2,3-triazol-4-yl)phenyl)-6-(3-morpholinopropoxy)quinazolin-4-amine] returned a melting point of 168 to 169 °C. Besides, the “% Cell Viability (10 μM)” value with HepG2 cells [4] was 36.48 ± 2.89%.
In the case of `COc1cc2ncnc(Nc3cccc(-c4cn(Cc5cc(F)ccc5Br)nn4)c3)c2cc1OCCCN1CCOCC1` [Compound 11e, N-(3-(1-(2-bromo-5-fluorobenzyl)-1H-1,2,3-triazol-4-yl)phenyl)-7-methoxy-6-(3-morpholinopropoxy)quinazolin-4-amine], in the data set on HepG2 cells [4], the “% Cell Viability (10 μM)” value is given as 7.03 ± 0.16% and the IC50 is 4.04 ± 0.21 µM.
Regarding `COc1cc2ncnc(Nc3cccc(-c4cn(Cc5ccc(Br)cc5F)nn4)c3)c2cc1OCCCN1CCOCC1` [Compound 11f, N-(3-(1-(4-bromo-2-fluorobenzyl)-1H-1,2,3-triazol-4-yl)phenyl)-7-methoxy-6-(3-morpholinopropoxy)quinazolin-4-amine], the melting point lay within 169 to 170 °C. In the data set with HepG2 cells [4], the “% Cell Viability (10 μM)” value was 5.72 ± 0.40% and the IC50 stood at 5.15 ± 0.31 µM.
Consider `COc1cc2ncnc(Nc3cccc(-c4cn(Cc5ccc(F)c(Cl)c5)nn4)c3)c2cc1OCCCN1CCOCC1` [Compound 11g, N-(3-(1-(3-chloro-4-fluorobenzyl)-1H-1,2,3-triazol-4-yl)phenyl)-7-methoxy-6-(3-morpholinopropoxy)quinazolin-4-amine], for which the melting point fell in the range of 179 to 181 °C. In addition, in the data set on HepG2 cells [4], the “% Cell Viability (10 μM)” value was 6.50 ± 0.88% and the IC50 came to 5.23 ± 0.2 µM.
Compound `COc1cc2ncnc(Nc3cccc(-c4cn(Cc5c(F)cccc5Cl)nn4)c3)c2cc1OCCCN1CCOCC1` [Compound 11h, N-(3-(1-(2-chloro-6-fluorobenzyl)-1H-1,2,3-triazol-4-yl)phenyl)-7-methoxy-6-(3-morpholinopropoxy)quinazolin-4-amine] came in with a melting point of 177 to 180 °C. In the data set with HepG2 cells [4], the “% Cell Viability (10 μM)” value is on record as 6.80 ± 0.14% and the half-maximal inhibitory concentration (IC50) amounted to 3.91 ± 0.08 µM.
Turning to `COc1cc2ncnc(Nc3cccc(-c4cn(Cc5ccccc5[N+](=O)[O-])nn4)c3)c2cc1OCCCN1CCOCC1` [Compound 11i, 7-methoxy-6-(3-morpholinopropoxy)-N-(3-(1-(2-nitrobenzyl)-1H-1,2,3-triazol-4-yl)phenyl)quinazolin-4-amine], in the data set with HepG2 cells [4], the “% Cell Viability (10 μM)” value turned out to be 70.10 ± 3.40%.
`COc1cc2ncnc(Nc3cccc(-c4cn(Cc5ccc([N+](=O)[O-])cc5)nn4)c3)c2cc1OCCCN1CCOCC1` [Compound 11j, 7-methoxy-6-(3-morpholinopropoxy)-N-(3-(1-(4-nitrobenzyl)-1H-1,2,3-triazol-4-yl)phenyl)quinazolin-4-amine] displayed a melting point of 171 to 173 °C. Besides, the “% Cell Viability (10 μM)” value in the data set with HepG2 cells [4] stood at 47.33 ± 2.17%.
Compound `COc1cc2ncnc(Nc3cccc(-c4cn(Cc5ccccc5F)nn4)c3)c2cc1OCCCN1CCOCC1` [Compound 11k, N-(3-(1-(2-fluorobenzyl)-1H-1,2,3-triazol-4-yl)phenyl)-7-methoxy-6-(3-morpholinopropoxy)quinazolin-4-amine] yielded a melting point of 184 to 186 °C. Besides, in the data set with HepG2 cells [4], the “% Cell Viability (10 μM)” value is reported as 14.72 ± 2.29% and the IC50 was found to be 6.21 ± 0.24 µM.
For the compound `COc1cc2ncnc(Nc3cccc(-c4cn(Cc5ccc(C(F)(F)F)cc5)nn4)c3)c2cc1OCCCN1CCOCC1` [Compound 11l, 7-methoxy-6-(3-morpholinopropoxy)-N-(3-(1-(4-(trifluoromethyl)benzyl)-1H-1,2,3-triazol-4-yl)phenyl)quinazolin-4-amine], in the data set with HepG2 cells [4], the “% Cell Viability (10 μM)” value turned out to be 5.85 ± 1.15% and the IC50 turned out to be 4.53 ± 0.37 µM.
For `COc1cc2ncnc(Nc3cccc(-c4cn(Cc5cccc(Cl)c5)nn4)c3)c2cc1OCCCN1CCOCC1` [Compound 11n, N-(3-(1-(3-chlorobenzyl)-1H-1,2,3-triazol-4-yl)phenyl)-7-methoxy-6-(3-morpholinopropoxy)quinazolin-4-amine], the melting point fell in the range of 164 to 165 °C. Moreover, in the data set with HepG2 cells [4], the “% Cell Viability (10 μM)” value turned out to be 7.68 ± 0.34% and the concentration for half-maximal inhibition (IC50) was determined as 6.1 ± 0.06 µM.
`COc1cc2ncnc(Nc3cccc(-c4cn(Cc5ccc(Cl)cc5)nn4)c3)c2cc1OCCCN1CCOCC1` [Compound 11o, N-(3-(1-(4-chlorobenzyl)-1H-1,2,3-triazol-4-yl)phenyl)-7-methoxy-6-(3-morpholinopropoxy)quinazolin-4-amine] had a melting point of 165 to 167 °C. In addition, in the data set on HepG2 cells [4], the “% Cell Viability (10 μM)” value amounted to 8.06 ± 0.88% and the 50% inhibitory concentration (IC50) is 5.14 ± 0.25 µM.
Turning to `COc1cc2ncnc(Nc3cccc(-c4cn(Cc5ccccc5C)nn4)c3)c2cc1OCCCN1CCOCC1` [Compound 11p, 7-methoxy-N-(3-(1-(2-methylbenzyl)-1H-1,2,3-triazol-4-yl)phenyl)-6-(3-morpholinopropoxy)quinazolin-4-amine], the melting point lay within 169 to 171 °C. Also, in the data set on HepG2 cells [4], the “% Cell Viability (10 μM)” value was 17.36 ± 1.24% and the half-inhibitory concentration (IC50) came to 10.1 ± 0.14 µM.
Take `COc1cc2ncnc(Nc3cccc(-c4cn(Cc5cc(C)cc(C)c5)nn4)c3)c2cc1OCCCN1CCOCC1` [Compound 11q, N-(3-(1-(3,5-dimethylbenzyl)-1H-1,2,3-triazol-4-yl)phenyl)-7-methoxy-6-(3-morpholinopropoxy)quinazolin-4-amine]: the melting point was in the range of 172 to 173 °C. In addition, in the data set with HepG2 cells [4], the “% Cell Viability (10 μM)” value was 7.14 ± 0.95% and the IC50 was determined as 5.38 ± 0.57 µM.
Compound `COc1cc2ncnc(Nc3cccc(-c4cn(Cc5cc(F)ccc5C#N)nn4)c3)c2cc1OCCCN1CCOCC1` [Compound 11r, 4-fluoro-2-((4-(3-((7-methoxy-6-(3-morpholinopropoxy)quinazolin-4-yl)amino)phenyl)-1H-1,2,3-triazol-1-yl)methyl)benzonitrile] displayed a melting point of 164 to 166 °C. Further, in the data set with HepG2 cells [4], the “% Cell Viability (10 μM)” value was 9.11 ± 1.63% and the half-maximal inhibitory concentration (IC50) was determined as 6.68 ± 0.11 µM.
Take `COc1cc(Cn2cc(-c3cccc(Nc4ncnc5cc(OC)c(OCCCN6CCOCC6)cc45)c3)nn2)cc(OC)c1` [Compound 11s, N-(3-(1-(3,5-dimethoxybenzyl)-1H-1,2,3-triazol-4-yl)phenyl)-7-methoxy-6-(3-morpholinopropoxy)quinazolin-4-amine]: the melting point lay within 167 to 170 °C. In the data set with HepG2 cells [4], the “% Cell Viability (10 μM)” value is reported as 22.89 ± 1.97%.
Turning to `COc1cc2ncnc(Nc3ccc(F)c(Cl)c3)c2cc1OCCCN1CCOCC1` [Gefitinib], the “% Cell Viability (10 μM)” value with HepG2 cells [4] turned out to be 31.03 ± 2.42%.

One may read the IC50 as the point on the concentration scale where inhibition reaches its midpoint. Broadly, the melting point is the temperature of the solid-liquid transition.
